In patent US9572786B2, “Use of capsiate or dihydrocapsidate” (Catholic University Industry Academy Cooperation Foundation, priority 2007, dated 2017):

Test system: Sprague dawley (SD) rats
Test: Retinal vascular permeability in streptozotocin induced diabetic retinopathy
Type: in vivo, rat
Conditions: intravitreally injected 1-week after streptozotocin, observed at 3 weeks with dextran FITC
Procedure: Diabetes are induced by performing intraperitoneal injection of 60 mg/kg of streptozotocin (Sigma, St Louis, Mo., USA) into 8-week-old male Sprague dawley (SD) rats (250 g). 3 days later, serum glucose level was measured and rats having serum glucose level of […] and more are selected and used in experiments. Capsiate or capsaicin was intravitreally injected 1-week after the injection of streptozotocin, respectively. 3 weeks after the injection of streptozotocin, 0.5 ml of dextran FITC (25 mg/ml, MW 40K, Sigma, St Louis, Mo., USA) was injected through tail vein of tested rats to imaging retinal vascular pattern. Retinal tissues of the rats are isolated and observed by fluorescent microscopy (Olympus, Tokyo, Japan). The increase of retinal vascular permeability is observed in nonproliferative diabetic retinopathy, proliferative diabetic retinopathy and diabetic macular edema and result from cracks in vascular vessel due to breakdown of blood-retinal barrier (BRB).

SMILES: COc1cc(CNC(=O)CCCC/C=C/C(C)C)ccc1O [Capsaicin, capsaicin, reference compound]
- increment of retinal vascular permeability: does not effect
